Laboratory results from patent US20250368595A1, “NOVEL MOLECULES” (XENIOPRO GmbH, priority 2018, published 2025).

Assays:
HL-60 cells = assay: alamarBlue proliferation assay with HL-60 cells; format: cell-based, human; conditions: relative to DMSO basis level 1.0
From the text: (§1) The antiproliferative activities of compounds falling under formula (Ia), (Ib) and (Ic), respectively, were investigated on cells or cell lines originating from a disorder of the haematopoietic system, including the myeloid cell compartment and the lymphoid cell compartment (T-cells and B-cells), the neuroendocrine system, the cervix, the breast, the ovaries, the lung, the gastrointestinal tract, and the mucosal epithelium, as well as from the skin epithelium and from the muscle. To this end, HL-60 cells, NB-4 cells, HH cells, RPMI-8402 cells, TANQUE cells, TT cells, HeLa cells, MDA-MB-231 cells, FU-OV-1 cells, LOU-NH91 cells, 23132/87 cells, CAL-27 cells, BHY cells, SCC-25 cells, A-431 cells, human primary epidermal keratinocytes (HPEK), and C2C12 cells were seeded into 96-well plates suitable for fluorescence assays (CORNING #3598) at following initial cell numbers: 1000 cells per well for HL-60; 1000 cells per well for NB-4; 5000 cells per well for HH; 5000 cells per well for RPMI-8402; 1500 cells per well for TANOUE; 9000 cells per well for TT; 2000 cells per well for HeLa; 3000 cells per well for MDA-MB-231; 3000 cells per well for FU-OV-1; 4000 cells per well for LOU-NH91; 2000 cells per well for 23132/87; 2000 cells per well for CAL-27; 1500 cells per well for BHY; 1500 cells per well for SCC-25; 700 cells per well for A-431; 1000 cells per well for HPEK; 500 cells per well for C2C12. […] The readout was taken with a multi-well plate-reader in the fluorescence mode with applying a filter for excitation at 560 nm (band width 10 nm) and for emission at 590 nm (band width 10 nm). […]
(§2) The assays were performed in duplicate or more replicates of independent single experiments each containing a six-fold replicate for every condition. For every individual plate, the measured fluorescence intensity values of the conditions with compound treatment were normalized • against the corresponding equally weighted arithmetic mean of the fluorescence intensity values of the six DMSO treated control wells in order to obtain the relative values to a baseline level of 1.0. […]

NB-4 cells = assay: alamarBlue proliferation assay with NB-4 cells; format: cell-based, human; conditions: relative to DMSO basis level 1.0
From the text: as §1, §2

HH cells = assay: alamarBlue proliferation assay with HH cells; format: cell-based, human; conditions: relative to DMSO basis level 1.0
From the text: as §1, §2

RPMI-8402 cells = assay: alamarBlue proliferation assay with RPMI-8402 cells; format: cell-based, human; conditions: relative to DMSO basis level 1.0
From the text: as §1, §2

TANOUE cells = assay: alamarBlue proliferation assay with TANOUE cells; format: cell-based, human; conditions: relative to DMSO basis level 1.0
From the text: as §1, §2

TT cells = assay: alamarBlue proliferation assay with TT cells; format: cell-based, human; conditions: relative to DMSO basis level 1.0
From the text: as §1, §2

HeLa cells = assay: alamarBlue proliferation assay with HeLa cells; format: cell-based, human; conditions: relative to DMSO basis level 1.0
From the text: as §1, §2

MDA-MB-231 cells = assay: alamarBlue proliferation assay with MDA-MB-231 cells; format: cell-based, human; conditions: 20 μM, relative to DMSO basis level 1.0
From the text: The antiproliferative activities of compounds falling under formula (Ia), (Ib) and (Ic), respectively, were investigated on cells or cell lines originating from a disorder of the haematopoietic system, including the myeloid cell compartment and the lymphoid cell compartment (T-cells and B-cells), the neuroendocrine system, the cervix, the breast, the ovaries, the lung, the gastrointestinal tract, and the mucosal epithelium, as well as from the skin epithelium and from the muscle. […] The readout was taken with a multi-well plate-reader in the fluorescence mode with applying a filter for excitation at 560 nm (band width 10 nm) and for emission at 590 nm (band width 10 nm). […]
as §2

FU-OV-1 cells = assay: alamarBlue proliferation assay with FU-OV-1 cells; format: cell-based, human; conditions: relative to DMSO basis level 1.0
From the text: as §1, §2

LOU-NH91 cells = assay: alamarBlue proliferation assay with LOU-NH91 cells; format: cell-based, human; conditions: relative to DMSO basis level 1.0
From the text: as §1, §2

23132/87 cells = assay: alamarBlue proliferation assay with 23132/87 cells; format: cell-based, human; conditions: relative to DMSO basis level 1.0
From the text: as §1, §2

CAL-27 cells = assay: alamarBlue proliferation assay with CAL-27 cells; format: cell-based, human; conditions: relative to DMSO basis level 1.0
From the text: as §1, §2

BHY cells = assay: alamarBlue proliferation assay with BHY cells; format: cell-based, human; conditions: relative to DMSO basis level 1.0
From the text: as §1, §2

SCC-25 cells = assay: alamarBlue proliferation assay with SCC-25 cells; format: cell-based, human
From the text: as §1, §2

A-431 cells = assay: alamarBlue proliferation assay with A-431 cells; format: cell-based, human
From the text: as §1, §2

HPEKp cells = assay: alamarBlue proliferation assay with HPEKp cells; format: cell-based, human
From the text: as §1, §2

C2C12 cells = assay: alamarBlue proliferation assay with C2C12 cells; format: cell-based, murine
From the text: as §1, §2

Compound	Activity Range: weighted arithmetic mean (AVEw) of normalized fluorescence intensity (HL-60 cells; 20 μM)	Activity Range: weighted arithmetic mean (AVEw) of normalized fluorescence intensity (NB-4 cells; 20 μM)	Activity Range: weighted arithmetic mean (AVEw) of normalized fluorescence intensity (HH cells; 20 μM)	Activity Range: weighted arithmetic mean (AVEw) of normalized fluorescence intensity (RPMI-8402 cells; 20 μM)	Activity Range: weighted arithmetic mean (AVEw) of normalized fluorescence intensity (TANOUE cells; 20 μM)	Activity Range: weighted arithmetic mean (AVEw) of normalized fluorescence intensity (TT cells; 20 μM)	Activity Range: weighted arithmetic mean (AVEw) of normalized fluorescence intensity (HeLa cells; 20 μM)	Activity Range: weighted arithmetic mean (AVEw) of normalized fluorescence intensity (MDA-MB-231 cells)	Activity Range: weighted arithmetic mean (AVEw) of normalized fluorescence intensity (FU-OV-1 cells; 20 μM)	Activity Range: weighted arithmetic mean (AVEw) of normalized fluorescence intensity (LOU-NH91 cells; 20 μM)	Activity Range: weighted arithmetic mean (AVEw) of normalized fluorescence intensity (23132/87 cells; 20 μM)	Activity Range: weighted arithmetic mean (AVEw) of normalized fluorescence intensity (CAL-27 cells; 20 μM)	Activity Range: weighted arithmetic mean (AVEw) of normalized fluorescence intensity (BHY cells; 20 μM)	Activity Range: weighted arithmetic mean (AVEw) of normalized fluorescence intensity, relative to DMSO basis level of 1.0 (SCC-25 cells; 20 μM)	Activity Range: weighted arithmetic mean (AVEw) of normalized fluorescence intensity, relative to DMSO basis level of 1.0 (A-431 cells; 20 μM)	Activity Range: weighted arithmetic mean (AVEw) of normalized fluorescence intensity, relative to DMSO basis level of 1.0 (HPEKp cells; control at 20 μM)	Activity Range: weighted arithmetic mean (AVEw) of normalized fluorescence intensity, relative to DMSO basis level of 1.0 (C2C12 cells; 20 μM)	also measured
CN(Cc1cnc2nc(N)nc(N)c2n1)c1ccc(C(=O)N[C@@H](CCC(=O)O)C(=O)O)cc1 [MTREX, Methotrexate]	0.1 ± 0.1	0.1 ± 0.0	0.4 ± 0.1	0.1 ± 0.0	0.1 ± 0.0	1.0 ± 0.0	0.4 ± 0.0	0.6 ± 0.0	1.0 ± 0.0	0.5 ± 0.1	0.3 ± 0.0	0.1 ± 0.0	0.3 ± 0.0	0.5 ± 0.1	0.2 ± 0.1	0.9 ± 0.0	0.1 ± 0.0	–
Oc1ccc(C=Cc2cc(O)cc(O)c2)cc1 [RES, Resveratrol]	0.4 ± 0.1	0.1 ± 0.0	0.6 ± 0.1	0.6 ± 0.0	0.1 ± 0.0	0.9 ± 0.0	0.9 ± 0.0	0.6 ± 0.0	0.7 ± 0.0	0.9 ± 0.1	0.5 ± 0.1	0.8 ± 0.1	0.5 ± 0.1	0.4 ± 0.1	0.6 ± 0.1	0.2 ± 0.0	0.8 ± 0.0	Activity Range: weighted arithmetic mean (AVEw) of normalized fluorescence intensity (HL-60 cells; control at 40 μM): 0.2 ± 0.1; Activity Range: weighted arithmetic mean (AVEw) of normalized fluorescence intensity (NB-4 cells; control at 40 μM): 0.0 ± 0.0; Activity Range: weighted arithmetic mean (AVEw) of normalized fluorescence intensity (HH cells; control at 40 μM): 0.4 ± 0.1; Activity Range: weighted arithmetic mean (AVEw) of normalized fluorescence intensity (RPMI-8402 cells; control at 40 μM): 0.1 ± 0.0; Activity Range: weighted arithmetic mean (AVEw) of normalized fluorescence intensity (TANOUE cells; control at 40 μM): 0.0 ± 0.0; Activity Range: weighted arithmetic mean (AVEw) of normalized fluorescence intensity (TT cells; control at 40 μM): 0.7 ± 0.0; Activity Range: weighted arithmetic mean (AVEw) of normalized fluorescence intensity (HeLa cells; control at 40 μM): 0.4 ± 0.1; Activity Range: weighted arithmetic mean (AVEw) of normalized fluorescence intensity (FU-OV-1 cells; control at 40 μM): 0.4 ± 0.0; Activity Range: weighted arithmetic mean (AVEw) of normalized fluorescence intensity (LOU-NH91 cells; control at 40 μM): 0.7 ± 0.0; Activity Range: weighted arithmetic mean (AVEw) of normalized fluorescence intensity (23132/87 cells; control at 40 μM): 0.2 ± 0.0; Activity Range: weighted arithmetic mean (AVEw) of normalized fluorescence intensity (CAL-27 cells; control at 40 μM): 0.4 ± 0.3; Activity Range: weighted arithmetic mean (AVEw) of normalized fluorescence intensity (BHY cells; control at 40 μM): 0.3 ± 0.0; Activity Range: weighted arithmetic mean (AVEw) of normalized fluorescence intensity, relative to DMSO basis level of 1.0 (SCC-25 cells; control at 40 μM): 0.1 ± 0.0; Activity Range: weighted arithmetic mean (AVEw) of normalized fluorescence intensity, relative to DMSO basis level of 1.0 (A-431 cells; control at 40 μM): 0.2 ± 0.0; Activity Range: weighted arithmetic mean (AVEw) of normalized fluorescence intensity, relative to DMSO basis level of 1.0 (HPEKp cells; control at 40 μM): 0.2 ± 0.0; Activity Range: weighted arithmetic mean (AVEw) of normalized fluorescence intensity, relative to DMSO basis level of 1.0 (C2C12 cells; control at 40 μM): 0.2 ± 0.1
